The text below walks through data of a melting point compilation (Tetko et al.; mined from patent text by program, amines drawn as free bases though some values may be those of a salt).

Molecule `Cc1nc2cccc(N)c2c(=O)n1[C@@]1(C)CCC(=O)NC1=O` displayed a melting point of 295 to 297 °C. With `CC(C)(CNC(=O)CN1CCCC1=O)N1CCCCC1` the figure was 69 °C; with `C#CCN(Cc1ccc2nc[nH]c(=O)c2c1)c1ccc(C(=O)NCc2cccc([N+](=O)[O-])c2)cc1`, 93 to 96 °C. Then `CC(C)CC(NC(=O)C(Cc1c[nH]cn1)NC(=O)C(Cc1cccc2ccccc12)Cc1cccc2ccccc12)C(O)C(=O)OC(C)C` (stereo not given), with 93 to 98 °C. With `Cc1cccc(C)c1NCCN(C)CC(O)COc1cccc2[nH]ncc12` (stereo not given) the figure was 120 to 121 °C; with `CN(C)c1ccc(CNC(=O)C(Cc2ccccc2)NC(=O)Nc2ccc(C(=N)N)cc2)cc1` (stereo not given), 147 °C; with `CC(C(=O)O)c1ccc(Cc2ccccc2CC(=O)O)cc1` (stereo not given), 135 to 137 °C. `Clc1cccnc1-c1cc(OCCc2ccccn2)c2[nH]nc(Nc3cnccn3)c2c1` had a melting point of 117 to 119 °C. The molecule `CCOc1ccc(-n2c(-c3ccncc3)nc(SC)c(C#N)c2=O)cc1` displayed a melting point of 201 to 204 °C. With `CC1(C)C=Cc2c(ccc3c2C(=O)C(=O)C=C3)O1` the figure was 109 to 110 °C. In turn, `COc1ccc(-c2cn(Cc3ccccc3)c(=O)c3ccccc23)cc1OC` registered a melting point of 174 to 176 °C. `O=Cc1c2n(c3ccccc13)CCNCC2`: the melting point was in the range of 167 to 168 °C.

Take `COC(=O)CCc1c(C(C)C)cc(C(C)C)cc1C(C)C`: the melting point was in the range of 45 to 47 °C. Then `CCOC(=O)N1CCC(n2c(=O)n(C)c3cc(Cl)ccc32)CC1`, with 122 °C; and `CCc1cc(C(=O)Nc2cc(Oc3ccc4nc(NC(=O)C5CC5)cn4n3)ccc2F)n(C)n1`, with 236 °C; and `NC(=O)[C@@H]1C[C@H](C(=O)O)Nc2cc(Cl)cc(Cl)c21` (relative stereo), with 220 to 222 °C. With `CONC(=O)[C@@H](Cc1ccccc1)NC(=O)OC` the figure was 154 to 155 °C. Then `COc1ccc(F)c(O)c1`, with 25 to 26 °C. Molecule `CN(C(=O)OC(C)(C)C)c1cnc(-c2ccc(Cl)nc2)s1` gave a melting point of 167 to 170 °C. `CC1CCCN(CC(O)c2ccccc2)C1` (stereo not given) came in with a melting point of 70 °C. `O=C(COc1cc(-c2ccccn2)nc2ccccc12)N1CCOCC1` registered a melting point of 185 °C. In the case of `CCOCCNC(=O)c1ccc(-c2ccc(C(CC3CCOCC3)c3ccc(S(=O)(=O)C4CC4)cc3)[nH]2)nc1` (stereo not given), the melting point was in the range of 87 to 90 °C. `CCC1c2[nH]c3ccccc3c2CC(C(=O)O)N1C(=S)SC` (stereo not given) registered a melting point of 155 to 157 °C.

`COc1ccc(-c2coc3ccc(-c4nnc(SCc5cccc(OC)c5)o4)cc23)cc1`: the melting point fell in the range of 118 to 119 °C. With `CCN(CC)CCC(=O)NC1(c2ccccc2Cl)C(=O)Nc2ccc(Cl)cc21` (stereo not given) the figure was 176 to 178 °C; with `Cn1c2ccccc2c2cc(C=O)c3ccccc3c21`, 188 to 192 °C; with `CCCCCCCCCCCCc1cnn(C(C(=O)Nc2c(OC)cc(OC)cc2OC)c2ccccc2)n1` (stereo not given), 123 to 125 °C. Then `COc1cc2ccc(C)cc2c(C(C)C)c1OC`, with 62 to 63 °C; and `O=C1C[C@@H](C(=O)O)N(C(=O)OCc2ccccc2)C1`, with 99 to 101 °C. Molecule `CC(=CC(=O)Nc1ccccc1)Oc1ccccc1` had a melting point of 145 °C.

Molecule `CN(C)c1ncc(-c2cccc(-n3cnc4cc(-n5cccc5)ccc43)c2)cn1` gave a melting point of 237 to 238 °C. Then `CP(=O)(O)c1ccc(C(=O)O)cc1`, with 238 to 240 °C; and `NC(=O)COC(=O)c1ccc(O)cc1`, with 250 to 255 °C; and `Cc1ccc(-c2csc(-c3cccc(C(=O)O)c3)n2)cc1C`, with 235 to 236 °C. On to `CC(C)(C)OC(=O)Nc1ccc(-c2ccc(F)cc2)cc1[N+](=O)[O-]`, for which the melting point fell in the range of 155 to 167 °C. For the molecule `CN1CC2Cc3ccc(Cl)cc3C(C)(O)C2C1` (stereo not given), the melting point was in the range of 125 to 130 °C.

`CCCCCC(=O)Nc1ccn(C2OC(CO)C(O)C2O)c(=O)n1` (stereo not given) had a melting point of 131 to 136 °C. Consider `CCOc1cc(C(=O)N2CCc3cc(O)ccc3C2)cc(OCC)c1OCC`, for which the melting point stood at 158 °C. With `Cc1cc(C)c(/C=C2\C(=O)N(CN3CCCC3)c3ccccc32)[nH]1` the figure was 129 to 132 °C. In turn, `COc1cc2c(cc1OC)C(=CO)C(=O)N2` showed a melting point of 216 to 217 °C. Then `COC(=O)COc1ccccc1Oc1cc(NC(=O)CC(O)(O)C(F)(F)F)c(F)cc1Cl`, with 165 °C; and `CC(C)c1cccc(C(C)C)c1NC(=O)CSCC(=O)O`, with 168 to 169 °C. Then `CCCc1c(C(=O)C(C)C)c2ccc(CC(N)=O)cc2n1Cc1ccccc1Cl`, with 146 to 148 °C; and `ClC(=NNc1cc(Cl)ccc1Cl)c1ccccc1`, with 84.5 to 86 °C; and `O=C(O)C(Cl)CCCCCCCCCCCCC(Cl)C(=O)O` (stereo not given), with 71 to 72 °C.

`Nc1ccc(OCCCCN2C(=O)c3ccccc3C2=O)cc1`: the melting point fell in the range of 119 to 121 °C. Turning to `O=[N+]([O-])c1cc(Cl)cc(CCc2ccccn2)c1O`, the melting point was in the range of 97 to 100 °C. With `O=C1CCc2cccc3c2N1C(=O)CC3` the figure was 136 to 140 °C. With `N#CC1=CCOc2ccc(F)cc21` the figure was 114 to 115 °C; with `CCN(CC)S(=O)(=O)c1ccccc1S(=O)(=O)N=C(Nc1nc(OC)nc(OC)n1)SC`, 150 °C; with `Cc1cn(-c2ccc(F)cc2)c2ccc(Br)cc12`, 97 to 98 °C. Then `CC(=O)NC1Cc2ccc(O)cc2C1` (stereo not given), with 123 to 126 °C; and `CC(C)C[C@@H](C(=O)OCc1ccccc1)N1C(=O)[C@@H](N2C(=O)OC[C@@H]2c2ccccc2)[C@H]1CCc1ccccc1`, with 138 to 140 °C; and `Cc1ccc(S(=O)(=O)ON=C2CC(c3ccccc3)Oc3ccccc32)cc1` (stereo not given), with 141 to 143 °C. In the case of `CCCCC(=O)c1c(-c2ccc3cc(O)ccc3c2)oc2ccc(Cl)cc12`, the melting point is 156 to 157 °C.

For `c1ccc(-c2cc(-c3ccccc3)c(N3CCN(c4ncccn4)CC3)nn2)cc1`, the melting point lay within 71 to 74 °C. Molecule `CCc1cnc2c(NC(=O)c3c(Cl)cccc3Cl)cccc2c1/C=C/C(N)=O` came in with a melting point greater than 250 °C. Then `CCOC(=O)Cc1ccc2c(c1)sc1c(Cl)cccc12`, with 62 to 64 °C; and `Cn1nc(-c2ccc(F)cc2)c(-c2ccncc2)c1NC(=O)Cc1ccc(O)cc1`, with 127 to 129 °C; and `CC(=O)Nc1nc2c(Oc3cc(-c4ccc(C(F)(F)F)cc4Cl)ncn3)cccc2s1`, with 263 to 264 °C. Consider `O=c1c(Cl)c(OCc2ccc(F)cc2F)ccn1Cc1cccc2cnccc12`, for which the melting point was 235 to 238 °C. Then `Cc1nc(N2CCN(Cc3ccc(F)cc3)C2=O)sc1C(=O)NCc1ncco1`, with 187 to 189 °C. Then `COC(=O)c1ccc(C(=O)C(=O)c2ccc3c(c2)C(C)(C)CCC3(C)C)cc1`, with 93 to 96 °C; and `O=C(c1ccccc1)n1c2ccccc2c2cc(O)c(O)cc21`, with 260 to 261 °C. Molecule `COC(=O)C(NC(CO)c1ccccc1)C1CC2CCC(C1)N2` (stereo not given) returned a melting point of 124 °C. In the case of `COC(=O)c1ccc(Nc2ccn(-c3ccccc3)n2)cc1`, the melting point was in the range of 160 to 161 °C. Then `COc1ccc(N)cc1NC(C)=O`, with 83 °C; and `CC(C)c1cccc(-c2c(-c3ccc4nn(C)cc4c3)nsc2NC(=O)[C@@H]2C[C@H]2C)n1`, with 142 to 144 °C; and `OC1(F)CC(c2ccccc2)=Nc2ccccc21` (stereo not given), with 298 to 302 °C. On to `O=C1CC[C@H]2N1CCN1C(=O)C[C@H]3CCCC[C@@]321` (relative stereo), for which the melting point was 135 to 136 °C. Then `[N-]=[N+]=NC1CCCC2(CCCC2)NC1=O` (stereo not given), with 96 to 99 °C; and `COc1ccc(COc2cccnc2NC(=N)Nc2ccccc2)cc1`, with 141 to 143 °C; and `COc1cc2c(cc1OC(C)=O)C(=O)CCC2`, with 118 to 120 °C. As to `O=c1ccc(CO)c[nH]1`, the melting point came out at 130 °C. With `O=C(NCC12CC3CC(CC(C3)C1)C2)c1c(Cl)ccc2nc(N3CCC[C@H](NCCc4nn[nH]n4)C3)ccc12` the figure was 168 to 172 °C; with `Cc1nc(-c2ccc(Cn3sccc3=O)cc2)cs1`, 150 to 152 °C; with `CCOC(=O)c1cc2cc(OCCNC[C@H](O)COc3ccccc3)ccc2s1`, 99 to 100 °C. With `CCCCOc1cc(C(CC(=O)OC)N2C(=O)c3ccccc3C2=O)ccc1OC` (stereo not given), the melting point lay within 54 to 55 °C. With `O=c1[nH]c2ccccc2n1CCCN1CCC(c2nsc3ccccc23)CC1` the figure was 185 to 187 °C; with `CC(C)(C)c1cc2c(c(C(C)(C)C)c1)OC(=O)C2c1ccc(F)cc1` (stereo not given), 146 to 147 °C. Then `CCn1c(Oc2cccc(NC=O)c2)nnc1[C@@H](C)NS(=O)(=O)c1ccc(Cl)c(Cl)c1`, with 168 to 170 °C; and `COc1ccc(C(=O)Cc2c(Cl)cncc2Cl)c2c1OCCO2`, with 158 to 160 °C; and `CN1Cc2c(C(=O)OC(C)(C)C)ncn2-c2cccc(C#N)c2C1=O`, with 213 to 215 °C. With `OC(CN1CCOCC1)c1cc(C(F)(F)F)nc2c(C(F)(F)F)cccc12` (stereo not given) the figure was 129 to 130 °C; with `Cc1c(-c2ccccc2)oc2c(S)cccc2c1=O`, 115 to 118 °C; with `COC(=O)c1cc(-c2ccccc2)c(=O)n2ccc3ccc(Cl)cc3c12`, 169 to 170 °C. `COc1ccc(N2CCN(c3c(C)c(C)c4c(c3C)C(NCc3ccccc3)C(C)(C)O4)CC2)cc1` (stereo not given) came in with a melting point of 93 to 95 °C.

With `O=C1Cc2cc(C3=NNC(=O)SC3)ccc2N1`, the melting point is greater than 310 °C. With `Clc1cc2nc(NC3=NCCN3)[nH]c2c(Cl)c1Cl`, the melting point lay within 324 to 326 °C. With `COc1ccc(S(=O)(=O)n2c(=O)[nH]c3cc(Cl)ccc3c2=O)cc1OC` the figure was greater than 250 °C.
